Laboratory results as given in patent US11407761B2, “Derivative of β-apopicropodophyllin and method of preparing thereof” (J&C Sciences, priority 2020, dated 2022).

What was measured:
[1] = test system: MCF-7; test: PrestoBlue cell viability, MCF-7; type: cell-based; settings: Homo sapiens, MCF7; breast, MCF-7, 48 h
Procedure: (§1) Human lung cancer cells A549, NCl-H460 and 7 cancer cell lines were cultured in RPMI 1640 medium containing 10% FBS (Gibco, USA) and 1% penicillin-streptomycin. Human colon cancer cell HCT-116 cell line was cultured in McCoy's 5A medium containing 10% FBS (Gibco, USA) and 1% penicillin-streptomycin. Human leukemia cancer cell HL-60 cell line was cultured in IMDM medium containing 20% FBS (Gibco, USA) and 1% penicillin-streptomycin. Human normal cell line WI-38 was cultured in MEM containing 10% FBS (Gibco, USA), 1% penicillin-streptomycin, and 1% Non-Essential Amin Acids solution. Human normal cell line HUVEC cultured in Human Endothelial Growth Medium containing. All the cells were cultured in sterilized cell culture plastic dishes or 96-well plastic plates in a humidified incubator filled with 95% air and 5% CO2 gas and maintained at a temperature of 37° C.
(§2) First, the cells are seeded in a 96-well plate (Nunc, 165305) at a volume of 100 μl, and then cultured in an incubator overnight to confirm that they grow well on the plate. Depending on the concentration of the drugs, each well is treated with 100 μl of the compound and then incubated to allow cells and compounds to react for 48 hrs. PrestoBlue Cell Viability Reagent (Invitrogen, A13262) was added to the compound-treated well, and then the plates were incubated in a humidified incubator at 37° C. for 30 mins. Each well was measured at a fluorescence detected with the wavelength of an excitation of 560 nm and an emission of 590 nm using by microplate reader (BioTek, Synergy H1). The IC50 value is calculated by using the Gen5 software.

[2] = test system: H1975; test: PrestoBlue cell viability, H1975; type: cell-based; settings: Homo sapiens, NCI-H1975; lung, H1975, 48 h
Procedure: as §1, §2

[3] = test system: WI-38; test: PrestoBlue toxicity test, normal cells WI-38; type: cell-based, Human; settings: WI-38, 48 h
Procedure: as §1, §2

[4] = test system: HUVEC; test: PrestoBlue toxicity test, normal cells HUVEC; type: cell-based, Human; settings: 48 h
Procedure: as §1, §2

[5] = test system: H460; test: PrestoBlue cell viability, H460; type: cell-based, Human; settings: lung
Procedure: as §1, §2

[6] = test system: HL-60; test: PrestoBlue cell viability, HL-60; type: cell-based, Human; settings: HL-60, 48 h, leukemia
Procedure: as §1, §2

[7] = test system: A549; test: PrestoBlue cell viability, A549; type: cell-based, Human
Procedure: as §1, §2

[8] = test system: H1299; test: PrestoBlue cell viability, H1299; type: cell-based; settings: Homo sapiens, NCI-H1299; lung, H1299, 48 h
Procedure: as §1, §2

[9] = test system: CFPAC-1; test: PrestoBlue cell viability, CFPAC-1; type: cell-based; settings: Homo sapiens; pancreas, CFPAC-1, 48 h
Procedure: as §1, §2

[10] = test system: HCC827; test: PrestoBlue cell viability, HCC827; type: cell-based; settings: Homo sapiens; lung, HCC827, 48 h
Procedure: as §1, §2

[11] = test system: H1650; test: PrestoBlue cell viability, H1650; type: cell-based; settings: Homo sapiens, NCI-H1650; lung, H1650, 48 h
Procedure: as §1, §2

[12] = test system: HCT-116; test: PrestoBlue cell viability, HCT-116; type: cell-based; settings: Homo sapiens; colon, HCF116 (HCT-116), 48 h
Procedure: as §1, §2

[13] = test system: H146; test: PrestoBlue cell viability, H146; type: cell-based; settings: Homo sapiens, NCI-H146; lung, H146, 48 h
Procedure: as §1, §2

[14] = test system: MDA-MB-231; test: PrestoBlue cell viability, MDA-MB-231; type: cell-based; settings: Homo sapiens; breast, MDA-MB-231, 48 h
Procedure: as §1, §2

[15] = test system: BxPC-3; test: PrestoBlue cell viability, BxPC-3; type: cell-based; settings: Homo sapiens; pancreas, BxPC-3, 48 h
Procedure: as §1, §2

[16] = test system: K562; test: PrestoBlue cell viability, K562; type: cell-based, Human; settings: for IC50: Homo sapiens, leukemia, K562, 48 h
Procedure: as §1, §2

[17] = test system: WI-26; test: PrestoBlue toxicity test, normal cells WI-26; type: cell-based, Human; settings: WI-26, 48 h
[18] = Homo sapiens, NCI-H460, H460, 48 h

SMILES | IC50 [1] [µM] | IC50 [2] [µM] | IC50 ([3]; Homo sapiens) [µM] | IC50 ([4]; Homo sapiens) [µM] | IC50 ([6]; Homo sapiens) [µM] | IC50 [8] [µM] | IC50 [9] [µM] | IC50 [10] [µM] | IC50 [11] [µM] | IC50 [12] [µM] | IC50 [13] [µM] | IC50 [14] [µM] | IC50 [15] [µM] | IC50 [3] [µM] | IC50 [4] [µM] | IC50 [16] [µM] | IC50 ([5]; Homo sapiens, NCI-H460, 48 h) [µM] | IC50 [6] [µM] | IC50 ([7]; Homo sapiens, A549, 48 h, lung) [µM] | IC50 ([17]; Homo sapiens, 48 h) [µM] | further results
COc1cc([C@@H]2c3cc4c(cc3[C@@H](O[C@@H]3O[C@@H]5CO[C@@H](C)O[C@H]5[C@H](O)[C@H]3O)[C@H]3COC(=O)[C@H]23)OCO4)cc(OC)c1O [Etoposide, reference compound] | > 50 | > 50 | > 50 | > 50 | 2.43 | 40.1 | 42 | > 50 | > 50 | 7.29 | > 50 | > 50 | > 50 | – | – | – | – | – | – | – | IC50 [5, 18]: 0.971 µM; IC50 ([7]; Homo sapiens; lung, A549, 48 h): 2.16 µM
COc1cc([C@@H]2C3=C(COC3=O)Cc3cc4c(cc32)OCO4)cc(OC)c1OC(C)=O [example 1, Acetic acid (5S)-2,6-dimethoxy-4-(6-oxo-5,6,8,9-tetrahydrofuro[3′,4′:6,7]naphtho[2,3-d][1,3]dioxol-5-yl)-phenyl ester] | > 50 | > 50 | ≥ 50 | ≥ 50 | – | > 50 | > 50 | > 50 | > 50 | 0.129 | > 50 | > 50 | > 50 | > 50 | > 50 | > 50 | 0.06 | 0.03 | 0.065 | ≥ 50 | IC50 [17]: > 50 µM
COc1cc([C@@H]2C3=C(COC3=O)Cc3cc4c(cc32)OCO4)cc(OC)c1OC(=O)c1ccccc1 [example 2, Benzoic acid (5S)-2,6-dimethoxy-4-(6-oxo-5,6,8,9-tetrahydrofuro[3′,4′:6,7]naphtho[2,3-d][1,3]dioxol-5-yl)-phenyl ester] | > 50 | > 50 | ≥ 50 | ≥ 50 | – | > 50 | > 50 | > 50 | > 50 | 1.39 | > 50 | > 50 | > 50 | > 50 | > 50 | > 50 | 0.134 | 0.25 | 0.202 | ≥ 50 | IC50 [17]: > 50 µM
COc1cc([C@@H]2C3=C(COC3=O)Cc3cc4c(cc32)OCO4)cc(OC)c1OCc1ccccc1 [example 3, (5S)-5-(4-Benzyloxy-3,5-dimethoxy-phenyl)-5,9-dihydro-8H-furo[3′,4′:6,7]naphtho[2,3-d][1,3]dioxol-6-one] | > 50 | > 50 | ≥ 50 | ≥ 50 | – | > 50 | > 50 | > 50 | > 50 | 0.234 | > 50 | > 50 | > 50 | > 50 | > 50 | > 50 | – | 0.181 | – | ≥ 50 | IC50 [5, 18]: 0.174 µM; IC50 ([7]; Homo sapiens; lung, A549, 48 h): 0.127 µM; IC50 [17]: > 50 µM
COc1cc([C@@H]2C3=C(COC3=O)Cc3cc4c(cc32)OCO4)cc(OC)c1OCC1CCCCC1 [example 4, (5S)-5-(4-Cyclohexylmethoxy-3,5-dimethoxy-phenyl)-5,9-dihydro-8H-furo[3′,4′:6,7]naphtho[2,3-d][1,3]dioxol-6-one] | – | – | ≥ 50 | ≥ 50 | > 50 | – | – | – | – | 1.57 | – | > 50 | – | > 50 | > 50 | 0.398 | 0.796 | – | 0.698 | ≥ 50 | effects against the blood cancer cell line K562 (in words) [16]: particularly excellent effects
C=CCCOc1c(OC)cc([C@@H]2C3=C(COC3=O)Cc3cc4c(cc32)OCO4)cc1OC [example 5, (5S)-5-(4-But-3-enyloxy-3,5-dimethoxy-phenyl)-5,9-dihydro-8H-furo[3′,4′:6,7]naphtho[2,3-d][1,3]dioxol-6-one] | – | – | ≥ 50 | ≥ 50 | > 50 | – | – | – | – | > 50 | – | > 50 | – | > 50 | > 50 | – | ≥ 50 | – | ≥ 50 | ≥ 50 | IC50 ([5]; H460, 48 h): > 50 µM; IC50 ([7]; lung, A549, 48 h): > 50 µM
COc1cc([C@@H]2C3=C(COC3=O)Cc3cc4c(cc32)OCO4)cc(OC)c1OCc1ccc(F)cc1 [example 6, (5S)-5-[3,5-Dimethoxy-4-(4-fluorobenzyloxy)-phenyl]-5,9-dihydro-8H-furo[3′,4′:6,7]naphtho[2,3-d][1,3]dioxol-6-one] | – | – | ≥ 50 | ≥ 50 | > 50 | – | – | – | – | > 50 | – | > 50 | – | > 50 | > 50 | 0.247 | 0.437 | – | 0.288 | ≥ 50 | effects against the blood cancer cell line K562 (in words) [16]: particularly excellent effects
COc1cc([C@@H]2C3=C(COC3=O)Cc3cc4c(cc32)OCO4)cc(OC)c1OCc1ccc(C(F)(F)F)cc1 [example 7, (5S)-5-[3,5-Dimethoxy-4-(4-trifluoromethyl-benzyloxy)-phenyl]-5,9-dihydro-8H-furo[3′,4′:6,7]naphtho[2,3-d][1,3]dioxol-6-one] | – | – | ≥ 50 | ≥ 50 | > 50 | – | – | – | – | > 50 | – | > 50 | – | > 50 | > 50 | – | ≥ 50 | – | ≥ 50 | ≥ 50 | IC50 ([5]; H460, 48 h): > 50 µM; IC50 ([7]; lung, A549, 48 h): > 50 µM
COc1cc([C@@H]2C3=C(COC3=O)Cc3cc4c(cc32)OCO4)cc(OC)c1OCc1ccc(C)cc1 [example 8, (5S)-5-[3,5-Dimethoxy-4-(4-methyl-benzyloxy)-phenyl]-5,9-dihydro-8H-furo[3′,4′:6,7]naphtho[2,3-d][1,3]dioxol-6-one] | – | – | ≥ 50 | ≥ 50 | > 50 | – | – | – | – | > 50 | – | > 50 | – | > 50 | > 50 | – | ≥ 50 | – | ≥ 50 | ≥ 50 | IC50 ([5]; H460, 48 h): > 50 µM; IC50 ([7]; lung, A549, 48 h): > 50 µM
